Data as given in ChEMBL document CHEMBL3044600 (Biochem Syst Ecol, 2008).
Converted amounts (≈) assume the structure as drawn. Values belong to the compound of their own block, whether it stands above or below them. The source made the active and inactive calls. The calls are words filed in the database; no cut-off is given here.

Legend:
Spodoptera littoralis [1] = experiment: Antifeedant activity against Spodoptera littoralis L6 larvae assessed as food consumption level orally dosed with 40 ug after 72 hr relative to untreated control; type: functional
Lactuca sativa [2] = experiment: Phytotoxicity against Lactuca sativa var. Carrascoy (lettuce) assessed as inhibition of radicle length at 50 ug/cm2 after 24 to 144 hr; type: functional
[3] = Toxicity against Cricetulus griseus CHO (Chinese hamster ovary) cell by MTT assay; type: cell-based; details: CHO cells
Spodoptera littoralis [4] = experiment: Antifeedant activity against Spodoptera littoralis L6 larvae assessed as biomass gain orally dosed with 40 ug after 72 hr relative to untreated control; type: functional
[5] = Toxicity against Spodoptera frugiperda (fall armyworm) Sf9 cells by MTT assay; type: cell-based
Spodoptera littoralis [6] = experiment: Antifeedant activity against Spodoptera littoralis sixth-instar larvae fed on compound treated Solanum tuberosum leaves assessed as inhibition of feeding; type: functional, organism-based
[7] = test system: Leptinotarsa decemlineata; experiment: Antifeedant activity against Leptinotarsa decemlineata adults fed on compound treated Capsicum annuum leaves assessed as inhibition of feeding; type: functional, organism-based
Lactuca sativa [8] = experiment: Phytotoxicity against Lactuca sativa var. Carrascoy (lettuce) assessed as inhibition of seed germination at 50 ug/cm2 after 24 hr; type: functional, organism-based
Myzus persicae = experiment: Antifeedant activity against Myzus persicae (green peach aphid) adults fed on compound treated […] annuum leaves assessed as feeding level at 50 ug/cm2 (reference value: 43 to 70%); type: functional
Rhopalosiphum padi = experiment: Antifeedant activity against Rhopalosiphum padi adults fed on compound treated Hordeum vulgare annuum leaves assessed as feeding level at 50 ug/cm2 (reference value: 47 to 64%); type: functional
Lactuca sativa [9] = experiment: Phytotoxicity against Lactuca sativa var. Carrascoy (lettuce) assessed as inhibition of seed germination at 50 ug/cm2 after 48 hr; type: functional, organism-based
Lactuca sativa [10] = experiment: Phytotoxicity against Lactuca sativa var. Carrascoy (lettuce) assessed as inhibition of seed germination at 50 ug/cm2 up to 144 hr; type: functional, organism-based
Lactuca sativa [11] = experiment: Phytotoxicity against Lactuca sativa var. Carrascoy (lettuce) assessed as inhibition of seed germination at 50 ug/cm2 after 72 hr; type: functional, organism-based
Lactuca sativa [12] = experiment: Phytotoxicity against Lactuca sativa var. Carrascoy (lettuce) assessed as inhibition of seed germination at 50 ug/cm2 after 96 hr; type: functional, organism-based

EC50 [7]: > 50 microg/cm2
SMILES: C=C1C(=O)O[C@@H]2CCN3CC=C(COC(=O)[C@](C)(O)[C@H](C)[C@H]1C)[C@H]23
Activity (Spodoptera littoralis [1]): 98%
inhibition at 50 µg/cm2 (Lactuca sativa [2]): < 50%
EC50 [3]: 13.2 µg/mL (≈ 39.4 µM)
Activity (Spodoptera littoralis [4]): 90%
EC50 [5]: > 100 µg/mL
EC50 (Spodoptera littoralis [6]): > 50 microg/cm2

SMILES: C/C=C1\C[C@@H](C)[C@](O)(CO)C(=O)OCC2=CCN3CC[C@@H](OC1=O)[C@@H]23 (stereo in doubt; 7)
inhibition (Lactuca sativa [8]): Active

SMILES: C/C=C1/C[C@@H](C)[C@](O)(CO)C(=O)OCC2=CCN3CC[C@@H](OC1=O)[C@@H]23 (stereo in doubt; 7) [RETRORSINE]
EC50 [3]: > 100 µg/mL

SMILES: C/C=C1\C[C@@H](C)[C@](O)(CO)C(=O)OCC2=CCN3CC[C@@H](OC1=O)[C@@H]23 (stereo in doubt; 7) [RETRORSINE]
Activity (Spodoptera littoralis [1]): 88%
Activity (Myzus persicae): 44%
Activity (Spodoptera littoralis [4]): 90%
Activity (Rhopalosiphum padi): 46%
EC50 (Spodoptera littoralis [6]): > 50 microg/cm2
EC50 [7]: > 50 microg/cm2

SMILES: C/C=C1\C[C@@H](C)[C@](O)(CO)C(=O)OCC2=CCN3CC[C@@H](OC1=O)[C@@H]23 (stereo in doubt; 8)
inhibition (Lactuca sativa [8]): Active

SMILES: C/C=C1\C[C@@H](C)[C@](O)(CO)C(=O)OCC2=CCN3CC[C@@H](OC1=O)[C@@H]23 (stereo in doubt; 8) [RETRORSINE]
Activity (Spodoptera littoralis [1]): 92%
inhibition at 50 µg/cm2 (Lactuca sativa [2]): < 50%
Activity (Myzus persicae): 30%
EC50 [3]: > 100 µg/mL
Activity (Spodoptera littoralis [4]): 102%
EC50 [5]: > 100 µg/mL
Activity (Rhopalosiphum padi): 40%

SMILES: C/C=C1/C[C@@H](C)[C@@](C)(OC(C)=O)C(=O)OC/C2=C/CN(C)CC[C@@H](OC1=O)C2=O [ACETYLSENKIRKINE]
Activity (Spodoptera littoralis [1]): 88%
inhibition (Lactuca sativa [8]): Active
inhibition at 50 µg/cm2 (Lactuca sativa [2]): < 50%
Activity (Myzus persicae): 35%
Activity (Spodoptera littoralis [4]): 100%
Activity (Rhopalosiphum padi): 42%
EC50 (Spodoptera littoralis [6]): > 50 microg/cm2
inhibition (Lactuca sativa [9]): Active
EC50 [7]: > 50 microg/cm2

SMILES: C/C=C1\C[C@@H](C)[C@](O)(COC(C)=O)C(=O)OCC2=CCN3CC[C@@H](OC1=O)[C@@H]23 [ACETYLUSARAMINE]
Activity (Spodoptera littoralis [1]): 106%
inhibition (Lactuca sativa [8]): Active
inhibition at 50 µg/cm2 (Lactuca sativa [2]): < 50%
Activity (Myzus persicae): 40%
EC50 [3]: > 100 µg/mL
Activity (Spodoptera littoralis [4]): 60%
EC50 [5]: > 100 µg/mL

SMILES: C/C=C(/C)C(=O)O[C@@H]1CC[N+]2([O-])CC=C(COC(=O)[C@@](O)([C@H](C)O)C(C)(C)O)[C@H]12 (stereo not given in full) [ECHIMIDINE N-OXIDE]
Activity (Spodoptera littoralis [1]): 113%
Activity (Myzus persicae): 40%
Activity (Spodoptera littoralis [4]): 102%
Activity (Rhopalosiphum padi): 43%
EC50 (Spodoptera littoralis [6]): > 50 microg/cm2
EC50 [7]: > 50 microg/cm2

SMILES: C/C=C(/C)C(=O)O[C@@H]1CCN2CC=C(COC(=O)[C@@](O)([C@H](C)O)C(C)(C)O)[C@H]12 [ECHIMIDINE]
Activity (Spodoptera littoralis [1]): 165%
Activity (Myzus persicae): 40%
Activity (Spodoptera littoralis [4]): 118%
Activity (Rhopalosiphum padi): 36%
EC50 (Spodoptera littoralis [6]): > 50 microg/cm2
EC50 [7]: 1.4 microg/cm2

EC50 [7]: > 50 microg/cm2
SMILES: C/C=C1/C[C@@]2(CO)O[C@@]2(C)C(=O)OCC2=CCN3CC[C@@H](OC1=O)[C@@H]23 [ERUCIFOLINE]
Activity (Spodoptera littoralis [1]): 102%
inhibition (Lactuca sativa [8]): Active
inhibition at 50 µg/cm2 (Lactuca sativa [2]): < 50%
Activity (Myzus persicae): 31%
Activity (Spodoptera littoralis [4]): 106%
Activity (Rhopalosiphum padi): 43%
EC50 (Spodoptera littoralis [6]): > 50 microg/cm2

SMILES: C/C=C1\C[C@@H](C)[C@@](C)(O)C(=O)OCC2=CCN3CC[C@@H](OC1=O)[C@@H]23 [INTEGERRIMINE]
Activity (Spodoptera littoralis [1]): 88%
inhibition at 50 µg/cm2 (Lactuca sativa [2]): < 50%
Activity (Myzus persicae): 57%
EC50 [3]: > 100 µg/mL
Activity (Spodoptera littoralis [4]): 89%
EC50 [5]: > 100 µg/mL
Activity (Rhopalosiphum padi): 43%
EC50 (Spodoptera littoralis [6]): > 100 microg/cm2
EC50 [7]: 3.4 microg/cm2

SMILES: C[C@H]1C(=O)O[C@@H]2CCN3CC=C(COC(=O)[C@](C)(O)[C@]1(C)O)[C@H]23 [MONOCROTALINE]
Activity (Spodoptera littoralis [1]): 98%
inhibition (Lactuca sativa [8]): Active
inhibition at 50 µg/cm2 (Lactuca sativa [2]): < 50%
Activity (Myzus persicae): 49%
inhibition (Lactuca sativa [10]): Active
inhibition (Lactuca sativa [11]): Active
EC50 [3]: > 100 µg/mL
Activity (Spodoptera littoralis [4]): 47%
EC50 [5]: > 100 µg/mL
Activity (Rhopalosiphum padi): 37%
EC50 (Spodoptera littoralis [6]): > 50 microg/cm2
inhibition (Lactuca sativa [9]): Active
inhibition (Lactuca sativa [12]): Active
EC50 [7]: > 50 microg/cm2

SMILES: C/C=C1/C[C@@H](C)[C@@](C)(O)C(=O)OCC2=CCN3CC[C@@H](OC1=O)[C@@H]23 [SENECIONINE]
Activity (Spodoptera littoralis [1]): 84%
inhibition at 50 µg/cm2 (Lactuca sativa [2]): < 50%
Activity (Myzus persicae): 40%
EC50 [3]: > 100 µg/mL
Activity (Spodoptera littoralis [4]): 84%
EC50 [5]: > 100 µg/mL
Activity (Rhopalosiphum padi): 40%
EC50 (Spodoptera littoralis [6]): > 50 microg/cm2
EC50 [7]: 1.3 microg/cm2

SMILES: C=C1C/C(=C/C)C(=O)O[C@@H]2CCN3CC=C(COC(=O)[C@]1(C)O)[C@H]23 [SENECIPHYLLINE]
Activity (Spodoptera littoralis [1]): 82%
inhibition at 50 µg/cm2 (Lactuca sativa [2]): < 50%
Activity (Myzus persicae): 50%
EC50 [3]: > 100 µg/mL
Activity (Spodoptera littoralis [4]): 87%
EC50 [5]: > 100 µg/mL
Activity (Rhopalosiphum padi): 42%
EC50 (Spodoptera littoralis [6]): 50 microg/cm2
EC50 [7]: 1.7 microg/cm2

SMILES: C/C=C1\C[C@@H](C)[C@@](C)(O)C(=O)OC/C2=C/CN(C)CC[C@@H](OC1=O)C2=O [SENKIRKINE]
Activity (Spodoptera littoralis [1]): 105%
inhibition (Lactuca sativa [8]): Active
inhibition at 50 µg/cm2 (Lactuca sativa [2]): < 50%
Activity (Myzus persicae): 35%
inhibition (Lactuca sativa [11]): Active
Activity (Spodoptera littoralis [4]): 116%
Activity (Rhopalosiphum padi): 53%
EC50 (Spodoptera littoralis [6]): > 50 microg/cm2
inhibition (Lactuca sativa [9]): Active
inhibition (Lactuca sativa [12]): Active
EC50 [7]: > 50 microg/cm2

SMILES: C=C1C/C(=C\C)C(=O)O[C@@H]2CCN3CC=C(COC(=O)[C@]1(C)O)[C@H]23 [SPARTIOIDINE]
Activity (Spodoptera littoralis [1]): 97%
inhibition at 50 µg/cm2 (Lactuca sativa [2]): < 50%
Activity (Myzus persicae): 35%
EC50 [3]: > 100 µg/mL
Activity (Spodoptera littoralis [4]): 90%
EC50 [5]: > 100 µg/mL
Activity (Rhopalosiphum padi): 42%
EC50 (Spodoptera littoralis [6]): 0.2 microg/cm2
EC50 [7]: 4.8 microg/cm2
